Source: PubChem BioAssay AID248 (DTP/NCI, 2004)
Where “and” joins values, the source holds several entries; their conditions need not be identical. Equal entries are not always repeated. Inconclusive results and toxic doses are left out.

System: L1210 leukemia ip in BDF1 mice, survival T/C
Assay: NCI In Vivo Anticancer Drug Screen. Data for tumor model L1210 Leukemia (intraperitoneal) in B6D2F1 (BDF1) mice
Conditions: endpoint: mean survival time, higher = longer survival
Procedure, shortened: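 Value reflects the ratio of survival in compound-treated mice to survival in vehicle-treated controls, with both groups carrying the same transplanted tumor.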

[1] = dose: 25.0 mg/kg/injection, schedule: Q04DX003 (ip), vehicle: Klucel (hydroxypropylcellulose) (HPC)
[2] = dose: 50.0 mg/kg/injection, schedule: Q04DX003 (ip), vehicle: Klucel (hydroxypropylcellulose) (HPC)
[3] = dose: 100.0 mg/kg/injection, schedule: Q04DX003 (ip), vehicle: Klucel (hydroxypropylcellulose) (HPC)
[4] = dose: 200.0 mg/kg/injection, schedule: Q04DX003 (ip), vehicle: Klucel (hydroxypropylcellulose) (HPC)
[5] = dose: 100.0 mg/kg/injection, schedule: Q01DX009 (ip), vehicle: Klucel (hydroxypropylcellulose) (HPC)
[6] = dose: 200.0 mg/kg/injection, schedule: Q01DX009 (ip), vehicle: Klucel (hydroxypropylcellulose) (HPC)
[7] = dose: 400.0 mg/kg/injection, schedule: Q01DX009 (ip), vehicle: Klucel (hydroxypropylcellulose) (HPC)
[8] = dose: 400.0 mg/kg/injection, schedule: Q04DX003 (ip), vehicle: Klucel (hydroxypropylcellulose) (HPC)
[9] = dose: 100.0 mg/kg/injection, schedule: Q01DX001 (ip), vehicle: carboxymethylcellulose (CMC)
[10] = dose: 200.0 mg/kg/injection, schedule: Q01DX001 (ip), vehicle: carboxymethylcellulose (CMC)
[11] = dose: 400.0 mg/kg/injection, schedule: Q01DX001 (ip), vehicle: carboxymethylcellulose (CMC)

CCCCCCC(OC(C)=O)OC(C)=O
T/C (dose: 222.0 mg/kg/injection, schedule: Q01DX Z (ip), vehicle: saline): 101 % of control
T/C (dose: 333.0 mg/kg/injection, schedule: Q01DX Z (ip), vehicle: saline): 103 % of control
T/C (dose: 500.0 mg/kg/injection, schedule: Q01DX Z (ip), vehicle: saline): 104 % of control

CN/N=C/c1ccc(C(=O)NC(C)C)cc1
T/C [1]: 98 % of control
T/C [2]: 102 % of control
T/C [3]: 102 % of control
T/C [4]: 109 % of control

CC(C)CN(C)N=Nc1ccc(C(N)=O)cc1
T/C (dose: 100.0 mg/kg/injection, schedule: Q01DX001 (ip), vehicle: other): 100 % of control
T/C (dose: 200.0 mg/kg/injection, schedule: Q01DX001 (ip), vehicle: other): 91 % of control

Oc1cccc[c]1[Hg][Cl]
T/C (dose: 1.0 mg/kg/injection, schedule: Q01DX009 (ip), vehicle: Klucel (hydroxypropylcellulose) (HPC)): 98 % of control
T/C (dose: 1.0 mg/kg/injection, schedule: Q04DX003 (ip), vehicle: saline): 98 % of control
T/C (dose: 3.0 mg/kg/injection, schedule: Q01DX009 (ip), vehicle: Klucel (hydroxypropylcellulose) (HPC)): 89 % of control
T/C (dose: 3.0 mg/kg/injection, schedule: Q04DX003 (ip), vehicle: saline): 94 % of control
T/C (dose: 6.0 mg/kg/injection, schedule: Q01DX009 (ip), vehicle: Klucel (hydroxypropylcellulose) (HPC)): 94 % of control and 91 % of control

Cc1cc(C)c(S(=O)(=O)ON=C2c3ccccc3-c3ccccc32)c(C)c1
T/C [5]: 107 % of control
T/C [3]: 105 % of control
T/C [6]: 104 % of control
T/C [4]: 110 % of control
T/C [7]: 101 % of control
T/C [8]: 97 % of control

Cc1c(Cl)ccc2c1S(=O)(=O)c1cccc(Cl)c1-2
T/C (dose: 100.0 mg/kg/injection, schedule: Q04DX002 (ip), vehicle: Klucel (hydroxypropylcellulose) (HPC)): 104 % of control
T/C (dose: 200.0 mg/kg/injection, schedule: Q04DX002 (ip), vehicle: Klucel (hydroxypropylcellulose) (HPC)): 96 % of control
T/C (dose: 400.0 mg/kg/injection, schedule: Q04DX002 (ip), vehicle: Klucel (hydroxypropylcellulose) (HPC)): 100 % of control

CC(=O)CC(=O)C(F)(F)F.CC(=O)CC(=O)C(F)(F)F.CC(=O)CC(=O)C(F)(F)F.[Ru]
T/C [9]: 96 % of control
T/C [10]: 94 % of control
T/C [11]: 88 % of control

CN(C)c1ccc(/C=C/C=C/C(=O)c2ccccc2)cc1
T/C [3]: 88 % of control
T/C [4]: 93 % of control
T/C [8]: 93 % of control

CN1CCN(C(=S)Nc2ccccc2)CC1
T/C (dose: 25.0 mg/kg/injection, schedule: Q01DX001 (ip), vehicle: Klucel (hydroxypropylcellulose) (HPC)): 98 % of control
T/C (dose: 50.0 mg/kg/injection, schedule: Q01DX001 (ip), vehicle: Klucel (hydroxypropylcellulose) (HPC)): 106 % of control
T/C (dose: 100.0 mg/kg/injection, schedule: Q01DX001 (ip), vehicle: Klucel (hydroxypropylcellulose) (HPC)): 97 % of control and 107 % of control

S=P(c1cccs1)(c1cccs1)c1cccs1
T/C (dose: 100.0 mg/kg/injection, schedule: Q04DX003 (ip), vehicle: saline with Tween-80): 93 % of control
T/C (dose: 200.0 mg/kg/injection, schedule: Q04DX003 (ip), vehicle: saline with Tween-80): 96 % of control
T/C (dose: 400.0 mg/kg/injection, schedule: Q04DX003 (ip), vehicle: saline with Tween-80): 86 % of control

CC1=NC(C)(C)C(C)=C1C
T/C (dose: 25.0 mg/kg/injection, schedule: Q04DX002 (ip), vehicle: saline with Tween-80): 91 % of control
T/C (dose: 50.0 mg/kg/injection, schedule: Q04DX002 (ip), vehicle: saline with Tween-80): 94 % of control
T/C (dose: 100.0 mg/kg/injection, schedule: Q04DX002 (ip), vehicle: saline with Tween-80): 91 % of control

CCCCCCCCCCN=C(N)CSSCC(N)=NCCCCCCCCCC
T/C (dose: 0.39 mg/kg/injection, schedule: Q04DX002 (ip), vehicle: saline with Tween-80): 95 % of control
T/C (dose: 0.78 mg/kg/injection, schedule: Q04DX002 (ip), vehicle: saline with Tween-80): 100 % of control
T/C (dose: 1.56 mg/kg/injection, schedule: Q04DX002 (ip), vehicle: saline with Tween-80): 105 % of control

Cn1c(=O)c2[nH]cnc2n(C)c1=O
T/C (dose: 18.25 mg/kg/injection, schedule: Q01DX Z (ip), vehicle: carboxymethylcellulose (CMC)): 105 % of control
T/C (dose: 36.5 mg/kg/injection, schedule: Q01DX Z (ip), vehicle: carboxymethylcellulose (CMC)): 107 % of control
T/C (dose: 63.0 mg/kg/injection, schedule: Q01DX Z (ip), vehicle: carboxymethylcellulose (CMC)): 92 % of control
T/C [9]: 98 % of control
T/C (dose: 126.0 mg/kg/injection, schedule: Q01DX Z (ip), vehicle: carboxymethylcellulose (CMC)): 98 % of control
T/C [10]: 98 % of control
T/C [11]: 96 % of control

CCCN=C(N)c1ccc(NC(=O)c2ccc(C(=O)Nc3ccc(C(N)=NCCC)cc3)c(Cl)c2)cc1
T/C (dose: 1.25 mg/kg/injection, schedule: Q01DX Z (ip), vehicle: water): 98 % of control
T/C (dose: 2.5 mg/kg/injection, schedule: Q01DX Z (ip), vehicle: water): 101 % of control
T/C (dose: 6.5 mg/kg/injection, schedule: Q01DX Z (ip), vehicle: carboxymethylcellulose (CMC)): 155 % of control
T/C (dose: 13.0 mg/kg/injection, schedule: Q01DX Z (ip), vehicle: carboxymethylcellulose (CMC)): 121 % of control
T/C (dose: 62.0 mg/kg/injection, schedule: Q01DX Z (oral), vehicle: water): 104 % of control
T/C (dose: 125.0 mg/kg/injection, schedule: Q01DX Z (oral), vehicle: water): 110 % of control
T/C (dose: 250.0 mg/kg/injection, schedule: Q01DX Z (oral), vehicle: water): 104 % of control
T/C (dose: 500.0 mg/kg/injection, schedule: Q01DX Z (oral), vehicle: water): 104 % of control

CC(C)(C)OC(=O)C1=CNCCC1
T/C (dose: 100.0 mg/kg/injection, schedule: Q01DX001 (ip), vehicle: saline): 102 % of control
T/C (dose: 100.0 mg/kg/injection, schedule: Q04DX003 (ip), vehicle: saline): 106 % of control
T/C (dose: 200.0 mg/kg/injection, schedule: Q01DX001 (ip), vehicle: saline): 94 % of control
T/C (dose: 200.0 mg/kg/injection, schedule: Q04DX003 (ip), vehicle: saline): 98 % of control
T/C (dose: 400.0 mg/kg/injection, schedule: Q01DX001 (ip), vehicle: saline): 105 % of control

O=C(Nc1ccccc1C(F)(F)F)OCCSc1ccc(Cl)cc1
T/C (dose: 100.0 mg/kg/injection, schedule: Q01DX009 (ip), vehicle: saline with Tween-80): 95 % of control
T/C (dose: 200.0 mg/kg/injection, schedule: Q01DX009 (ip), vehicle: saline with Tween-80): 95 % of control
T/C (dose: 400.0 mg/kg/injection, schedule: Q01DX009 (ip), vehicle: saline with Tween-80): 93 % of control

N=C(N)c1ccc(OCCCCOc2ccc(NC(=O)c3cccc(S(=O)(=O)F)c3)cc2)cc1
T/C (dose: 50.0 mg/kg/injection, schedule: Q01DX001 (ip), vehicle: saline with Tween-80): 98 % of control
T/C (dose: 100.0 mg/kg/injection, schedule: Q01DX001 (ip), vehicle: saline with Tween-80): 95 % of control
T/C (dose: 200.0 mg/kg/injection, schedule: Q01DX001 (ip), vehicle: saline with Tween-80): 97 % of control

CC1(NCCOC(=O)c2ccc(N)cc2)CCCCC1
T/C (dose: 75.0 mg/kg/injection, schedule: Q01DX001 (ip), vehicle: saline): 100 % of control
T/C (dose: 150.0 mg/kg/injection, schedule: Q01DX001 (ip), vehicle: saline): 100 % of control

CC(O)NC(=O)C1CC2c3cccc4[nH]cc(c34)CC2N(C)C1 (configuration not stated)
T/C [3]: 100 % of control
T/C [4]: 97 % of control
T/C [8]: 105 % of control

CCC(CO)NC(=O)C1C=C2c3cccc4c3c(cn4C)CC2N(C)C1 (configuration not stated)
T/C (dose: 25.0 mg/kg/injection, schedule: Q01DX009 (ip), vehicle: Klucel (hydroxypropylcellulose) (HPC)): 94 % of control and 101 % of control
T/C [1]: 97 % of control
T/C (dose: 50.0 mg/kg/injection, schedule: Q01DX009 (ip), vehicle: Klucel (hydroxypropylcellulose) (HPC)): 94 % of control and 101 % of control
T/C [2]: 103 % of control
T/C [5]: 111 % of control and 91 % of control
T/C [3]: 108 % of control
T/C [6]: 120 % of control and 121 % of control
T/C [4]: 109 % of control
T/C [7]: 120 % of control
T/C [8]: 104 % of control
